Laboratory results taken from ChEMBL document CHEMBL1909046, “DrugMatrix in vitro pharmacology data”.

Columns and labels:
[1] = DRUGMATRIX: Calcium Channel Type L, Phenylalkylamine radioligand binding (ligand: [3H] (-)-Desmethoxyverapamil (D-888)); format: cell membranes, Rattus norvegicus, Wistar, Brain, Membrane; conditions: Not Active = under 50% inhibition at 10 µM
[2] = target: T1, C-C chemokine receptor type 4 (Homo sapiens, UniProt P51679); format: cell membranes, Chem-1, Membrane; conditions: chem-1; note: in other assays of this panel Not Active means under 50% inhibition at 10 µM
T1 sequence (P51679 whole entry): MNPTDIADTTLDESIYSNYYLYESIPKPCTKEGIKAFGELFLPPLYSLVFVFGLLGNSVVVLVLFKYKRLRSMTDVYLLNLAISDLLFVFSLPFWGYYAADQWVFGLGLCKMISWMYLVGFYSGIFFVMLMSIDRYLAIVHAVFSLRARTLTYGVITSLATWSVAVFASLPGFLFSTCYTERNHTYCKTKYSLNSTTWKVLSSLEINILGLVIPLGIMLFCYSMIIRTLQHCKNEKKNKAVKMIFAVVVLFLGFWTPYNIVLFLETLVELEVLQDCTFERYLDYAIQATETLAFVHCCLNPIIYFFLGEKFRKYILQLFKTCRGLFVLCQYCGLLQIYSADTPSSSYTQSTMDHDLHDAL

[3] = target: T2, Polyunsaturated fatty acid lipoxygenase ALOX15 (Oryctolagus cuniculus, UniProt P12530); test: biochemical; format: tissue-based, Reticulocytes;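 note: inhibition of 15-lipoxygenase enzyme activity measured with linoleic acid as the substrate; in other assays of this panel Not Active means under 50% inhibition at 10 µM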
T2 sequence (P12530 whole entry): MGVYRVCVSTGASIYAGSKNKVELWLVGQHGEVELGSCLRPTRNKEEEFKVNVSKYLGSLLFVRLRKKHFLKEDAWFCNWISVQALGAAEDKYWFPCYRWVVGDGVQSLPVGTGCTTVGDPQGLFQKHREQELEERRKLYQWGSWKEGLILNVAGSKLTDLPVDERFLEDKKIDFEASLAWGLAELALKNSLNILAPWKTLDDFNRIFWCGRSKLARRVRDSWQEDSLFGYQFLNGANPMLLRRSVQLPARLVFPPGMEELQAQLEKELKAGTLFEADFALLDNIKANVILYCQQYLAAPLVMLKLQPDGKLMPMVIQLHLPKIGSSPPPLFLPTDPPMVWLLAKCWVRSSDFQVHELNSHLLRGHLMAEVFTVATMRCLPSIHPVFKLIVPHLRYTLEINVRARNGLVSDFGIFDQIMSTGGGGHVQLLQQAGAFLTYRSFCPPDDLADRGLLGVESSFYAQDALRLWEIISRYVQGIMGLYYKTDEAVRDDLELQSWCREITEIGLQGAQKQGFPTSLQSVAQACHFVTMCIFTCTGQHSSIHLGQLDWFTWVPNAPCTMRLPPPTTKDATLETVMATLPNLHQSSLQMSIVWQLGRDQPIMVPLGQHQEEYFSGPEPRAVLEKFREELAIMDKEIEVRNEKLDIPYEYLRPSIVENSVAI

[4] = DRUGMATRIX: Serotonin (5-Hydroxytryptamine) 5-HT3 radioligand binding (ligand: [3H] GR-65630); format: cell membranes, Membrane; conditions: hek293, Not Active = under 50% inhibition at 10 µM
[5] = DRUGMATRIX: Leukotriene, BLT (LTB4) radioligand binding (ligand: [3H]LTB4); format: cell membranes, Membrane; conditions: u-937; Not Active = under 50% inhibition at 10 µM

C1CCN2C[C@@H]3C[C@@H](CN4CCCC[C@@H]34)[C@H]2C1 [SPARTEINE]
IC50 [1]: Not Active | Ki [1]: Not Active | IC50 [2]: Not Active | IC50 ([3]; reticulocytes): Not Active | IC50 [4]: Not Active | Ki [4]: Not Active | IC50 [5]: Not Active | Ki [5]: Not Active

CO[C@@H]1[C@@H](OC)[C@H](C)[C@@](O)(CC(=O)O)O[C@H]1[C@H](C)[C@H]1O[C@@]2(CC[C@@](C)([C@H]3CC[C@@](C)([C@@H]4O[C@@H]([C@H]5O[C@](C)(O)[C@H](C)C[C@@H]5C)C[C@@H]4O[C@@H]4C[C@H](OC)[C@@H](OC)[C@H](C)O4)O3)O2)C[C@H](O)[C@H]1C.N [MADURAMICIN]
IC50 [1]: Not Active | Ki [1]: Not Active | IC50 [2]: Not Active | IC50 ([3]; reticulocytes): Not Active | IC50 [4]: Not Active | Ki [4]: Not Active | IC50 [5]: Not Active | Ki [5]: Not Active

CC[C@@]1(O)C(=O)OCc2c1cc1n(c2=O)Cc2cc3c(CN(C)C)c(O)ccc3nc2-1 [TOPOTECAN]
IC50 [1]: Not Active | Ki [1]: Not Active | IC50 [2]: Not Active | IC50 ([3]; reticulocytes): Not Active | IC50 [4]: Not Active | Ki [4]: Not Active | IC50 [5]: Not Active | Ki [5]: Not Active

C#C[C@]1(O)CC[C@H]2[C@@H]3[C@H](C)CC4=C(CCC(=O)C4)[C@H]3CC[C@@]21C [TIBOLONE]
IC50 [1]: Not Active | Ki [1]: Not Active | IC50 [2]: Not Active | IC50 ([3]; reticulocytes): Not Active | IC50 [4]: Not Active | Ki [4]: Not Active | IC50 [5]: Not Active | Ki [5]: Not Active

C[N+]1(C)[C@@H]2C[C@@H](OC(=O)[C@H](CO)c3ccccc3)C[C@H]1[C@@H]1O[C@@H]12.[Br-] [METHSCOPOLAMINE BROMIDE]
IC50 [1]: Not Active | Ki [1]: Not Active | IC50 [2]: Not Active | IC50 ([3]; reticulocytes): Not Active | IC50 [4]: Not Active | Ki [4]: Not Active | IC50 [5]: Not Active | Ki [5]: Not Active

CC[C@H](C)[C@@H](CO[C@@H](Cc1ccccc1)C(=O)N[C@@H](CCS(C)(=O)=O)C(=O)OC(C)C)NC[C@@H](N)CS
IC50 [1]: Not Active | Ki [1]: Not Active | IC50 [2]: Not Active | IC50 ([3]; reticulocytes): Not Active | IC50 [4]: Not Active | Ki [4]: Not Active | IC50 [5]: Not Active | Ki [5]: Not Active

CCN1CCCC1CNC(=O)c1cc(S(N)(=O)=O)ccc1OC (stereo unspecified) [SULPIRIDE]
IC50 [1]: Not Active | Ki [1]: Not Active | IC50 [2]: Not Active | IC50 ([3]; reticulocytes): Not Active | IC50 [4]: Not Active | Ki [4]: Not Active | IC50 [5]: Not Active | Ki [5]: Not Active

CC[C@H](C)C(=O)O[C@H]1CCC=C2C=C[C@H](C)[C@H](CC[C@@H]3C[C@@H](O)CC(=O)O3)[C@H]21 [MEVASTATIN]
IC50 [1]: Not Active | Ki [1]: Not Active | IC50 [2]: Not Active | IC50 ([3]; reticulocytes): Not Active | IC50 [4]: Not Active | Ki [4]: Not Active | IC50 [5]: Not Active | Ki [5]: Not Active

C[C@]12CCC(=O)C[C@@H]1CC[C@@H]1[C@@H]2CC[C@]2(C)[C@@H](O)CC[C@@H]12 [STANOLONE]
IC50 [1]: Not Active | Ki [1]: Not Active | IC50 [2]: Not Active | IC50 ([3]; reticulocytes): Not Active | IC50 [4]: Not Active | Ki [4]: Not Active | IC50 [5]: Not Active | Ki [5]: Not Active

CC(N)C12CC3CC(CC(C3)C1)C2 (stereo unspecified) [RIMANTADINE]
IC50 [1]: Not Active | Ki [1]: Not Active | IC50 [2]: Not Active | IC50 ([3]; reticulocytes): Not Active | IC50 [4]: Not Active | Ki [4]: Not Active | IC50 [5]: Not Active | Ki [5]: Not Active

Cc1cccc(C)c1NC(=O)C(C)N (stereo unspecified) [TOCAINIDE]
IC50 [1]: Not Active | Ki [1]: Not Active | IC50 [2]: Not Active | IC50 ([3]; reticulocytes): Not Active | IC50 [4]: Not Active | Ki [4]: Not Active | IC50 [5]: Not Active | Ki [5]: Not Active

CCN(CC)N=O [N-NITROSODIETHYLAMINE]
IC50 [1]: Not Active | Ki [1]: Not Active | IC50 [2]: Not Active | IC50 ([3]; reticulocytes): Not Active | IC50 [4]: Not Active | Ki [4]: Not Active | IC50 [5]: Not Active | Ki [5]: Not Active

CCC(C)(C)C(=O)O[C@H]1C[C@@H](C)C=C2C=C[C@H](C)[C@H](CC[C@@H]3C[C@@H](O)CC(=O)O3)[C@H]21 [SIMVASTATIN]
IC50 [1]: Not Active | Ki [1]: Not Active | IC50 [2]: Not Active | IC50 ([3]; reticulocytes): Not Active | IC50 [4]: Not Active | Ki [4]: Not Active | IC50 [5]: Not Active | Ki [5]: Not Active

CN1C[C@H](CNC(=O)OCc2ccccc2)C[C@@H]2c3cccc4c3c(cn4C)C[C@H]21 [METERGOLINE]
IC50 ([1]; read-out: IC50): 278 nM | Ki ([1]; read-out: Ki): 270 nM | IC50 [2]: Not Active | IC50 ([3]; reticulocytes): Not Active | IC50 [4]: Not Active | Ki [4]: Not Active | IC50 [5]: Not Active | Ki [5]: Not Active

CCN(CC)CCNC(=O)c1cc(Cl)c(N)cc1OC [METOCLOPRAMIDE]
IC50 [1]: Not Active | Ki [1]: Not Active | IC50 [2]: Not Active | IC50 ([3]; reticulocytes): Not Active | IC50 ([4]; read-out: IC50): 4010 nM | Ki ([4]; read-out: Ki): 902 nM | IC50 [5]: Not Active | Ki [5]: Not Active

Cc1ccc(Cl)c(Nc2ccccc2C(=O)O)c1Cl [MECLOFENAMIC ACID]
IC50 [1]: Not Active | Ki [1]: Not Active | IC50 [2]: Not Active | IC50 ([3]; reticulocytes): Not Active | IC50 [4]: Not Active | Ki [4]: Not Active | IC50 [5]: Not Active | Ki [5]: Not Active

CO[C@@]12[C@H](COC(N)=O)C3=C(C(=O)C(C)=C(N)C3=O)N1C[C@@H]1N[C@@H]12 [MITOMYCIN]
IC50 [1]: Not Active | Ki [1]: Not Active | IC50 [2]: Not Active | IC50 ([3]; reticulocytes): Not Active | IC50 [4]: Not Active | Ki [4]: Not Active | IC50 [5]: Not Active | Ki [5]: Not Active

Cc1[nH]c(=O)c(C#N)cc1-c1ccncc1 [MILRINONE]
IC50 [1]: Not Active | Ki [1]: Not Active | IC50 [2]: Not Active | IC50 ([3]; reticulocytes): Not Active | IC50 [4]: Not Active | Ki [4]: Not Active | IC50 [5]: Not Active | Ki [5]: Not Active

O=[As][O-].[Na+] [SODIUM ARSENITE]
IC50 [1]: Not Active | Ki [1]: Not Active | IC50 [2]: Not Active | IC50 ([3]; reticulocytes): Not Active | IC50 [4]: Not Active | Ki [4]: Not Active | IC50 [5]: Not Active | Ki [5]: Not Active

COC(=O)Nc1nc2ccc(C(=O)c3ccccc3)cc2[nH]1 [MEBENDAZOLE]
IC50 [1]: Not Active | Ki [1]: Not Active | IC50 [2]: Not Active | IC50 ([3]; reticulocytes): Not Active | IC50 [4]: Not Active | Ki [4]: Not Active | IC50 [5]: Not Active | Ki [5]: Not Active

CCOC(=O)C1=C(C)NC(C)=C(C(=O)OCC)C1c1ccccc1/C=C/C(=O)OC(C)(C)C [LACIDIPINE]
IC50 [1]: Not Active | Ki [1]: Not Active | IC50 [2]: Not Active | IC50 ([3]; reticulocytes): Not Active | IC50 [4]: Not Active | Ki [4]: Not Active | IC50 [5]: Not Active | Ki [5]: Not Active

O=C(OC[C@H]1O[C@@H](OC(=O)c2cc(O)c(O)c(OC(=O)c3cc(O)c(O)c(O)c3)c2)[C@H](OC(=O)c2cc(O)c(O)c(OC(=O)c3cc(O)c(O)c(O)c3)c2)[C@@H](OC(=O)c2cc(O)c(O)c(OC(=O)c3cc(O)c(O)c(O)c3)c2)[C@@H]1OC(=O)c1cc(O)c(O)c(OC(=O)c2cc(O)c(O)c(O)c2)c1)c1cc(O)c(O)c(OC(=O)c2cc(O)c(O)c(O)c2)c1 [TANNIC ACID]
IC50 [1]: Not Active | Ki [1]: Not Active | IC50 [2]: Not Active | IC50 ([3]; read-out: IC50): 268 nM | IC50 [4]: Not Active | Ki [4]: Not Active | IC50 [5]: Not Active | Ki [5]: Not Active
